These results are taken from US20210198277A1, “AMINE-SUBSTITUTED ARYL OR HETEROARYL COMPOUNDS” (Epizyme, Inc., priority 2016, published 2021).

The experiment addresses T1, EHMT2 (Homo sapiens, UniProt Q96KQ7).
T1 construct: host or cells: MDA-MB-231
T1 sequence (Q96KQ7 1-1210): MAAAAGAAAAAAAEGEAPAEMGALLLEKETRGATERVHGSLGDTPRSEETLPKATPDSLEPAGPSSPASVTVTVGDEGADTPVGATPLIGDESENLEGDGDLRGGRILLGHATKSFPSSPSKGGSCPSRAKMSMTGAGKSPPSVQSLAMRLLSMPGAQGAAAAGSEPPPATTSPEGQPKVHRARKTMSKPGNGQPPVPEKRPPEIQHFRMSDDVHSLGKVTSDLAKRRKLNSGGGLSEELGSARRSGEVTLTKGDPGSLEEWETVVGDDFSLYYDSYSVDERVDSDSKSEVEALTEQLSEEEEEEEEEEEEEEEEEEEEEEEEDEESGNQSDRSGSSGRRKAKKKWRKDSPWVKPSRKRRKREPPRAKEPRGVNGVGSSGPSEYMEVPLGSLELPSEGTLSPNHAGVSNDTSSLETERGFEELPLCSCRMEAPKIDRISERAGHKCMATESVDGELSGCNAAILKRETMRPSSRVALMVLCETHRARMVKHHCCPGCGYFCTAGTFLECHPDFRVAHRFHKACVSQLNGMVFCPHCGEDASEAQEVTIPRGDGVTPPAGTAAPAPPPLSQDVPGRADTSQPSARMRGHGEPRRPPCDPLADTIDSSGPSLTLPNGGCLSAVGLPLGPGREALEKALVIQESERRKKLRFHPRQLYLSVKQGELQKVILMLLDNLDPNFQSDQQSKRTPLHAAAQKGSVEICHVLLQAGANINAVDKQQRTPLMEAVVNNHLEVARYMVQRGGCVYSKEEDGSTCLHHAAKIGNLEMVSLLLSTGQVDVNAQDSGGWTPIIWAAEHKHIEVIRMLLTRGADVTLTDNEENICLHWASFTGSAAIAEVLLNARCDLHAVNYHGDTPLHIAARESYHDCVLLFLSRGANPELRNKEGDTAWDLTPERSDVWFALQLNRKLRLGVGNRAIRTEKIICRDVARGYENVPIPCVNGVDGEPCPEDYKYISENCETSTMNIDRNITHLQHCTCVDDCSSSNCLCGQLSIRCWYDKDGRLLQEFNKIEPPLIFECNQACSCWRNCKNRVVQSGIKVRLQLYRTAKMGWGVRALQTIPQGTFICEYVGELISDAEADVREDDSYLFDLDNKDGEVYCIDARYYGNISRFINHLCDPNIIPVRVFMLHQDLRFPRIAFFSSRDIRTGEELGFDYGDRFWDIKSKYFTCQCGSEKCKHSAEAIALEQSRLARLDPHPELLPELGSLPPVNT
Briefly: MDA-MB-231 H3K9me2 in-cell Western assay (EHMT2 ICW). The experiment is classed as cell-based. To be noted: H3K9me2 in-cell Western, MDA-MB-231 cells; read-out: EHMT2 ICW (IC50 μM). The method in brief:
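For 48 h at 37 °C, breast cancer MDA-MB-231 cells were incubated with compound, then fixed and immunostained for H3K9me2, with DRAQ5 used for normalisation. Each well's signal ratio yielded percent inhibition, and IC50 values were derived by fitting a four-parameter curve.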
As to `c1nc(NC2CCNCC2)ncc1OCC1CCN(C2CC2)C1` (stereo not drawn) [Compound 556], the half-inhibitory concentration (IC50) (in general, the concentration at which inhibition is half-maximal) is more than 10 µM. The figure for `COc1ccc(NC2CCCNC2)cc1OCCCN1CCCC1` (stereo not drawn) [Compound 573] is more than 10 µM.

Consider `CNc1ccnc(Nc2cc(OCCCN3CCCC3)c3cn[nH]c3c2)n1` [Compound 538, N^4-methyl-N^2-(4-(3-(pyrrolidin-1-yl)propoxy)-1H-indazol-6-yl)pyrimidine-2,4-diamine], for which the IC50 was more than 10 µM. With `COc1cc(Nc2nc(C)cc3[nH]ncc23)ncc1OCCCN1CCCC1` [Compound 565] the figure was 1 to 10 µM; with `COc1cc(NC2CCNCC2)ccc1OCCCN1CCCC1` [Compound 579], more than 10 µM; with `CNc1ccnc(NC2CCCNC2)n1` (stereo not drawn) [Compound 541, N^4-methyl-N^2-(piperidin-3-yl)pyrimidine-2,4-diamine], more than 10 µM. The figure for `CNc1cc(C)nc(Nc2ccc(OC)c(OCC3CN(C4CCCC4)C3)c2)n1` [Compound 577] is more than 10 µM; for `CNc1cc(C)nc(Nc2ccc(OC)c(OC[C@@H]3CCN(C4CCC4)C3)c2)n1` [Compound 563] it is less than 0.1 µM. With `CCc1cc(NC)nc(Nc2cnc(OC)c(OC[C@@H]3CCN(CC)C3)c2)n1` [Compound 601] the figure was 0.1 to 1 µM; with `COc1cnc(Nc2cccn3ccnc23)cc1OCCCN1CCCC1` [Compound 586], more than 10 µM; with `COc1ccc(Nc2nccc3[nH]ncc23)cc1OCCCN1CCCC1` [Compound 582], more than 10 µM. With `COc1ncc(Nc2nc(C)cc(NC(C)C)n2)cc1OCCCN1CCCC1` [Compound 593], the IC50 was 0.1 to 1 µM.

With `CCCC1(Nc2nccc(NC)n2)CCCNC1` (stereo not drawn) [Compound 544], the IC50 is more than 10 µM. With `CCN1CC(COc2cc(Nc3cc(NC)nc(C)c3F)ncc2OC)C1` [Compound 567] the figure was more than 10 µM.

Regarding `CCN1CC(C(C#N)Oc2cc(Nc3nc(C)cc(NC)n3)ccc2OC)C1` (stereo not drawn) [Compound 562], the IC50 lay within 1 to 10 µM. The figure for `COc1cnc(Nc2cccc3[nH]ncc23)cc1OCCCN1CCCC1` [Compound 581] is more than 10 µM; for `COc1ccc(Nc2nc(C)cc(NC(C)C)n2)cc1OCCCN1CCCC1` [Compound 603] it is 0.1 to 1 µM; for `CNc1cc(C)nc(Nc2ccc(OC)c(OC[C@@H]3CCN(C4(C)CC4)C3)c2)n1` [Compound 568] it is 0.1 to 1 µM. Regarding `CNc1ccnc(NC2CCNCC2)n1` [Compound 542, N^4-methyl-N^2-(piperidin-4-yl)pyrimidine-2,4-diamine], the IC50 was more than 10 µM. `CNc1cc(C)nc(Nc2ccc(OC)c(OCC3CN(C(C)C)C3)c2)n1` [Compound 575]: the half-maximal inhibitory concentration (IC50) was 1 to 10 µM.

`CNc1ccnc(N[C@@H]2CC[C@H](N)C2)n1` [Compound 548, N^2-((1R,3S)-3-aminocyclopentyl)-N^4-methylpyrimidine-2,4-diamine]: the half-maximal inhibitory concentration (IC50) is more than 10 µM. Regarding `COc1cnc(Nc2cccc3nccn23)cc1OCCCN1CCCC1` [Compound 585], the IC50 was 1 to 10 µM.

For `CNc1ccnc(NC2(C)CCCNC2)n1` (stereo not drawn) [Compound 546, N^4-methyl-N^2-(3-methylpiperidin-3-yl)pyrimidine-2,4-diamine], the half-inhibitory concentration (IC50) was more than 10 µM. The figure for `COc1ncc(Nc2nc(C)cc(NCC3CCOCC3)n2)cc1OCCCN1CCCC1` [Compound 591] is 0.1 to 1 µM; for `COc1ccc(NC2CCNCC2)cc1OCCCN1CCCC1` [Compound 572] it is more than 10 µM; for `COc1cc(NC2CCCNC2)ccc1OCCCN1CCCC1` (stereo not drawn) [Compound 578] it is more than 10 µM.

With `COc1ccc(Nc2nc(C)cc(NCC3CCOCC3)n2)cc1OCCCN1CCCC1` [Compound 590], the 50% inhibitory concentration (IC50) is 0.1 to 1 µM. With `CN1CCC(COc2cnc(NCC3CCOCC3)nc2)C1` (stereo not drawn) [Compound 553] the figure was more than 10 µM; with `COc1cnc(Nc2cc(C)nc3[nH]ncc23)cc1OCCCN1CCCC1` [Compound 596], more than 10 µM; with `COc1ncc(Nc2nc(C)cc(NCC3CCOCC3)n2)cc1OC[C@@H]1CCN(C2CCC2)C1` [Compound 594], 0.1 to 1 µM. Consider `CC(C)N1CC(COc2cnc(NC3CCNCC3)nc2)C1` [Compound 588], for which the IC50 was more than 10 µM. For `CN1CCC(COc2ccc(NC3CCNCC3)nc2)C1` (stereo not drawn) [Compound 554], the IC50 is more than 10 µM. With `CNc1cc(C)nc(Nc2ccc(OC)c(OCC3CN(C4CCOC4)C3)c2)n1` (stereo not drawn) [Compound 580] the figure was more than 10 µM; with `CNc1cc(C)nc(Nc2ccc(OC)c(O)c2)n1` [Compound 561], more than 10 µM.

In the case of `c1nc(NC2CCOCC2)ncc1OCC1CCN(C2CC2)C1` (stereo not drawn) [Compound 557], the IC50 was more than 10 µM. The figure for `CNc1ccnc(Nc2cc(OCCCN3CCCC3)c3[nH]ncc3c2)n1` [Compound 539] is more than 10 µM. The figure for `CNc1cc(C)nc(Nc2ccc(OC)c(OCC3CN(C4CCC4)C3)c2)n1` [Compound 576] is 0.1 to 1 µM; for `CNc1ccnc(NC2(C)CCNCC2)n1` [Compound 547, N^4-methyl-N^2-(4-methylpiperidin-4-yl)pyrimidine-2,4-diamine] it is more than 10 µM.

Take `CCCCN1CCCC(C)(Nc2nccc(NC)n2)C1` (stereo not drawn) [Compound 549, N^2-(1-butyl-3-methylpiperidin-3-yl)-N^4-methylpyrimidine-2,4-diamine]: the half-maximal inhibitory concentration (IC50) was more than 10 µM. The figure for `c1nc(NC2CCNCC2)ncc1OCCCN1CCCC1` [Compound 552] is more than 10 µM; for `CNc1cc(C)nc(Nc2ccc(OC)c(OCCCN3CC4(CC4)C3)c2)n1` [Compound 574] it is more than 10 µM. For `CNc1cc(C)nc(Nc2ccc(OC)c(OCC3CN(C(C)C)C3)c2)n1` [Compound 559], the half-inhibitory concentration (IC50) is 0.1 to 1 µM. With `COc1cc2c(C3CCN(C)CC3)nc(N(C)C)nc2cc1OCCCN1CCCC1` [Compound 587] the figure was 0.1 to 1 µM; with `CN1CCC(COc2cnc(NC3CCNCC3)nc2)C1` (stereo not drawn) [Compound 555], more than 10 µM; with `C/C=C/C(=O)Nc1cc(OCCCN2CCCC2)c(OC)cn1` [Compound 597], more than 10 µM.

Take `CNc1cc(C)nc(Nc2ccc(OC)c(OC[C@@H]3CCNC3)c2)n1` [Compound 600]: the IC50 is less than 0.1 µM. The figure for `CCN1CC(C(O)Oc2cc(Nc3nc(C)cc(NC)n3)ccc2OC)C1` (stereo not drawn) [Compound 560] is 0.1 to 1 µM; for `CCN1CC[C@@H](COc2cc(Nc3nc(C)cc(NC)n3)ccc2OC)C1` [Compound 571] it is 0.1 to 1 µM.

For the molecule `COc1cnc(Nc2cccc3cncn23)cc1OCCCN1CCCC1` [Compound 589], the IC50 was more than 10 µM. Take `CCN1CC(COc2cc(Nc3cc(NC)cc(C)n3)cnc2OC)C1` [Compound 569]: the half-maximal inhibitory concentration (IC50) was in the range of 0.1 to 1 µM. The figure for `CCN1CC[C@@H](COc2cc(Nc3nc(C)cc(NC(C)C)n3)ccc2OC)C1` [Compound 602] is 0.1 to 1 µM.

With `COc1ncc(Nc2nc(C)cc(NCC3CCOCC3)n2)cc1OC[C@@H]1CCN(C2CCC2)C1` [Compound 595], the IC50 was 0.1 to 1 µM. With `CNc1cc(C)nc(Nc2ccc(OC)c(OCCCN(C)C3CCC3)c2)n1` [Compound 551, N^2-(3-(3-(cyclobutyl(methyl)amino)propoxy)-4-methoxyphenyl)-N^4,6-dimethylpyrimidine-2,4-diamine] the figure was 0.1 to 1 µM; with `CCN1CC[C@@H](COc2cc(Nc3nc(C)cc(NC)n3)cnc2OC)C1` [Compound 599], 0.1 to 1 µM. The figure for `CCN1CC(COc2cc(Nc3cccc4nncn34)ncc2OC)C1` [Compound 584] is more than 10 µM; for `COc1ncc(Nc2nc(C)cc(NCC3CCOCC3)n2)cc1OC[C@@H]1CCN(C(C)C)C1` [Compound 592] it is 0.1 to 1 µM. With `CCCC1(Nc2nccc(NC)n2)CCNCC1` [Compound 545] the figure was more than 10 µM; with `COc1cnc(Nc2ccnc3[nH]ncc23)cc1OCCCN1CCCC1` [Compound 583], more than 10 µM; with `CCCCN1CCC(C)(Nc2nccc(NC)n2)CC1` [Compound 550, N^2-(1-butyl-4-methylpiperidin-4-yl)-N^4-methylpyrimidine-2,4-diamine], more than 10 µM. `CNc1cc(C)nc(Nc2cnc(OC)c(OC[C@H]3CCN(C4CC4)C3)c2)n1` [Compound 558]: the IC50 lay in the range of 0.1 to 1 µM.
